Assay results: publication PMC3307806 (Molecular Pharmaceutics, 2012)
“Also recorded” adds a separate entry of the source.

Legend:
P-gp at the rat BBB = P-gp at the rat BBB (Rattus norvegicus, UniProt Q6PSM0); conditions: absence of CsA, 60 min, n=5
[1] = Pseudo-steady-state blood CsA and plasma Lop/dLop concentrations in rats; conditions: 60 min; Student's t-test
P-gp (mdr1a/b) = conditions: 7; cited from earlier work
P-gp at the human BBB = conditions: human PET study; cited from earlier work
P-gp = conditions: verapamil-bodipy or prazosin-bodipy as probe substrate; cited from earlier work

Sequence of P-gp at the rat BBB (Q6PSM0 1-1272): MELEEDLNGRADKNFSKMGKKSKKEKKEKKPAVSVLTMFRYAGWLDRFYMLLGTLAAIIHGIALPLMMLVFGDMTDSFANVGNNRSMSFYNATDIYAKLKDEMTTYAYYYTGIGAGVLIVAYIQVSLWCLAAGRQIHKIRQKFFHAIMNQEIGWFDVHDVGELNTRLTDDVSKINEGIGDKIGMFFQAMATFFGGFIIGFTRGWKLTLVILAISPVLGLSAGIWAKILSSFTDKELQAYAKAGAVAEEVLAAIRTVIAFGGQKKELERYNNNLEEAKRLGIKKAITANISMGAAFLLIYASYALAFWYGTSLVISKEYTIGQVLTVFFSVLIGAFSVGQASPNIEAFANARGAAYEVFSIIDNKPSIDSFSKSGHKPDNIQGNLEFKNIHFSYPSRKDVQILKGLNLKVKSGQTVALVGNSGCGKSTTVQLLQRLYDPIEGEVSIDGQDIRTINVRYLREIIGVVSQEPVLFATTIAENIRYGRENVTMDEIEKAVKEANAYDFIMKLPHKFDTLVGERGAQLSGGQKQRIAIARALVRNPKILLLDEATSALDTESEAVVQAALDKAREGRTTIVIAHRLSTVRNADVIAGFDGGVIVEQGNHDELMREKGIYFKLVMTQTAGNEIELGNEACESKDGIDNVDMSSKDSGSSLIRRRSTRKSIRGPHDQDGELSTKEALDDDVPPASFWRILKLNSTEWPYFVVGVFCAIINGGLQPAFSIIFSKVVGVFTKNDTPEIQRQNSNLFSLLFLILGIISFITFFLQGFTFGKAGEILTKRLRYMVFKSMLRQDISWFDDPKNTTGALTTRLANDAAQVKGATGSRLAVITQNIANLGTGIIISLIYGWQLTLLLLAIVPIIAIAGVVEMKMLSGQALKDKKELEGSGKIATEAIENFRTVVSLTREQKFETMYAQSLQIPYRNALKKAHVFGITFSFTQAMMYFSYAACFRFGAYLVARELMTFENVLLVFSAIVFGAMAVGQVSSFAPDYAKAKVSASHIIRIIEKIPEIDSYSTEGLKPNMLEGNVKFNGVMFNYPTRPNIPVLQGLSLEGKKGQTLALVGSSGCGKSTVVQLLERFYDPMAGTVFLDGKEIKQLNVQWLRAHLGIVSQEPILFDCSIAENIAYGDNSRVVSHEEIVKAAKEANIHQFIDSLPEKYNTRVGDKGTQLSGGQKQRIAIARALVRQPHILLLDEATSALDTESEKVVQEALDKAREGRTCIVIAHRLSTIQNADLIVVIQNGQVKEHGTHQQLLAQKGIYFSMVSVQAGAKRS

Compound	effect of the presence of CsA on pseudo-steady-state plasma concentration [1]	difference in potency (EC50) to inhibit P-gp depending on the probe substrate (P-gp)	further results
CNC(=O)C(CCN1CCC(O)(c2ccc(Cl)cc2)CC1)(c1ccccc1)c1ccccc1 [dLop, N-desmethyl Loperamide]	did not significantly affect; also recorded: not significantly affected	–	brain:plasma concentrations (ratio) corrected for vascular content (P-gp at the rat BBB): 0.11 ± 0.04; brain:plasma concentrations (ratio) (P-gp at the rat BBB; not corrected for vascular content): 0.14 ± 0.04
Cc1c(O)cccc1C(=O)N[C@@H](CSc1ccccc1)[C@H](O)CN1C[C@H]2CCCC[C@H]2C[C@H]1C(=O)NC(C)(C)C [Nelfinavir]	–	–	increase in brain:blood concentration ratio in mdr1a/b(-/-) vs. wild-type mice (P-gp (mdr1a/b)): 3400%
CN([11CH3])C(=O)C(CCN1CCC(O)(c2ccc(Cl)cc2)CC1)(c1ccccc1)c1ccccc1 [11C-Lop]	–	–	share of radioactivity in the plasma (P-gp at the human BBB): 76%
C=C[C@H]1C[N@@]2CC[C@H]1C[C@@H]2[C@@H](O)c1ccnc2ccc(OC)cc12 [quindine]	–	20 fold	–
CN(C)C(=O)C(CCN1CCC(O)(c2ccc(Cl)cc2)CC1)(c1ccccc1)c1ccccc1 [Lop, Loperamide]	did not significantly affect; also recorded: not significantly affected	–	–
CCC(C)n1ncn(-c2ccc(N3CCN(c4ccc(OCC5COC(Cn6cncn6)(c6ccc(Cl)cc6Cl)O5)cc4)CC3)cc2)c1=O (centres unmarked) [itraconazole]	–	10 fold	–
